Values of other authors in patent US20220000907A1, “MOUTHWASH/GARGLE, NASAL/ORAL/NASAL SPRAY COVID AND BACTERIOCIDE ARRANGEMENT” (priority 2020, published 2022).

What was measured:
[1] = test system: microbes; conditions: 1.0% PVPI solution gives 0.1% available iodine
[2] = test system: all seven classes of viral organisms

## polyvinylpyrrolidone iodine [PVPI]
[1]
  most effective antimicrobial concentration of PVPI (peak of bell curve of microbial killing): 1%
[2]; PVPI in solution
  effectiveness against all classes of viruses (I-VII): effective
[2]; effective concentration of 0.1% available iodine
  inactivation of all classes of viruses: inactivated
